Measurements: the supplement of paper PMC3493320
Values joined by “and” are separate entries in the source; they are usually repeats but may differ in a detail not shown here. Equal entries are not always repeated.

Assays:
NCI-H295R [1] = assay: maximal response (efficacy) relative to DMSO (0%) and doxorubicin (-100%); higher = less growth inhibition; settings: 48 h
NCI-H295R [2] = assay: IC50 (antiproliferative, ATP content); settings: 48 h

SMILES | IC50 (NCI-H295R [2]) | maximal response (NCI-H295R [1])
[C@@]32([C@@]([C@@H](/C1=C/C(=O)OC1)CC2)([C@H](O)C[C@H]4[C@H]3CC[C@H]9[C@@]4(CC[C@H](O[C@@H]5O[C@@H]([C@H]([C@H](C5)O)O[C@@H]8O[C@@H]([C@@H](O[C@@H]7O[C@@H]([C@@H](O[C@H]6[C@@H]([C@@H](O)[C@@H]([C@H](O6)CO)O)O)[C@H](C7)OC(=O)C)C)C(C8)O)C)C)C9)C)C)O (some centres not stated) | 0.299 µM | -118%
Oc1c(Cl)cc(Cl)cc1Sc1cc(Cl)cc(Cl)c1O | 13.3 µM | -137%
[H][C@]1(CC3)[C@]([C@H]5C[C@@H]4[C@@](C=C6)=COC6=O)(O5)[C@]4(C)CC[C@]([C@]2(C)[C@@]3([H])C[C@@H](O)CC2)1[H] | 6.68 µM | -105%
O=C1C2CC=CCC2C(=O)N1SC(Cl)(Cl)Cl (configuration not stated) | 16.8 µM | -105%
Cl.Cl.Fc1ccc(C(OCCN2CCN(CCCc3ccccc3)CC2)c2ccc(F)cc2)cc1 | 23.7 µM | -154%
Cc1cc(CC(C)CC(C)(C)C)n(O)c(=O)c1.NCCO (configuration not stated) | 23.7 µM | -96.2%
OC[C@H]1O[C@@H](n2cnc3c(S)ncnc32)[C@H](O)[C@@H]1O | 2.99 µM | -68.2%
CC(C)(C)c1ccc(C(=O)CCCN2CCC(OC(c3ccccc3)c3ccccc3)CC2)cc1 | 16.8 µM | -139%
O=[C@@]([C@@H]4C3=CC(C(C1=CC=CC(O)=C12)=O)=C(C(O)=C3[C@@H](O[C@@H]7O[C@H]([C@H]([C@@H](N(C)C)C7)O[C@H](O6)C[C@@H]([C@@H]([C@@H]6C)O[C@H](O5)CCC([C@@H]5C)=O)O)C)C[C@](CC)4O)C2=O)OC.Cl | 0.944 µM | -122%
Oc1cc[c]([Hg][Cl])cc1 | 2.66 µM | -130%
CC[C@]2(O)CC[C@H]3[C@@H]4CC\C1=C\CCC[C@@H]1[C@H]4CC[C@]23C | 16.8 µM | -60.8%
CC[C@H]1CN2CCc3cc(OC)c(OC)cc3[C@@H]2C[C@@H]1C[C@H]1NCCc2cc(OC)c(OC)cc21 | 2.11 µM | -130%

Continued, in another order:

IC50 (NCI-H295R [2]) | SMILES | maximal response (NCI-H295R [1])
13.3 µM | CCCCCCCCCCCCCCCCOCCOCCOCCOCCOCCOCCOCCOCCOCCOCCOCCOCCOCCOCCOCCOCCOCCOCCOCCOCCO | -124%
0.0841 µM | O=C\1OC/C(=C/1)[C@H]8CC[C@@]7(O)[C@]8(C)CC[C@H]2[C@H]7CC[C@@H]3C[C@H](CC[C@]23C)O[C@@H]6O[C@H](C)[C@@H](O[C@H]5C[C@H](O)[C@H](O[C@H]4C[C@H](O)[C@H](O)[C@@H](C)O4)[C@@H](C)O5)[C@@H](O)C6 | -109%
21.1 µM | CCCCCCCCCCCCOCCOCCOCCOCCOCCOCCOCCOCCOCCO | -147%
21.1 µM | CCCCCCCCN[C@H](C)C(O)c1ccc(SC(C)C)cc1 (some centres not stated) | -137%
1.19 µM and 1.88 µM | CC(=O)[C@]1(O)Cc2c(O)c3c(c(O)c2[C@@H](O[C@H]2C[C@H](N)[C@H](O)[C@H](C)O2)C1)C(=O)c1c(O)cccc1C3=O | -123% and -125%
21.1 µM | COc1cc(C(=O)NS(=O)(=O)c2ccccc2C)ccc1Cc1cn(C)c2ccc(NC(=O)OC3CCCC3)cc12 | -134%
21.1 µM | CN(C)C3=CC=C(C=C3)/C(C2=CC=C(N(C)C)C=C2)=C(C=C1)/C=C/C1=N/C | -167%
0.376 µM | Cc1c2oc3c(C)ccc(C(=O)N[C@@H]4C(=O)N[C@H](C(C)C)C(=O)N5CCC[C@H]5C(=O)N(C)CC(=O)N(C)[C@@H](C(C)C)C(=O)O[C@H]4C)c3nc-2c(C(=O)N[C@@H]2C(=O)N[C@H](C(C)C)C(=O)N3CCC[C@H]3C(=O)N(C)CC(=O)N(C)[C@@H](C(C)C)C(=O)O[C@H]2C)c(N)c1=O | -113%
23.7 µM | CC[C@@H](C(=O)[C@@H](C)[C@@H](O)[C@H](C)CCc1ccc(C)c(O)c1C(=O)[O-])[C@H]1O[C@](CC)([C@H]2CC[C@](O)(CC)[C@H](C)O2)C[C@@H]1C.[Na+] | -159%
